Activity calls are given as the source filed them. The calls are words filed in the database; no cut-off is given here.

One data set has as its target T1, Androgen receptor (Homo sapiens, UniProt P10275).
T1 sequence (P10275 whole entry): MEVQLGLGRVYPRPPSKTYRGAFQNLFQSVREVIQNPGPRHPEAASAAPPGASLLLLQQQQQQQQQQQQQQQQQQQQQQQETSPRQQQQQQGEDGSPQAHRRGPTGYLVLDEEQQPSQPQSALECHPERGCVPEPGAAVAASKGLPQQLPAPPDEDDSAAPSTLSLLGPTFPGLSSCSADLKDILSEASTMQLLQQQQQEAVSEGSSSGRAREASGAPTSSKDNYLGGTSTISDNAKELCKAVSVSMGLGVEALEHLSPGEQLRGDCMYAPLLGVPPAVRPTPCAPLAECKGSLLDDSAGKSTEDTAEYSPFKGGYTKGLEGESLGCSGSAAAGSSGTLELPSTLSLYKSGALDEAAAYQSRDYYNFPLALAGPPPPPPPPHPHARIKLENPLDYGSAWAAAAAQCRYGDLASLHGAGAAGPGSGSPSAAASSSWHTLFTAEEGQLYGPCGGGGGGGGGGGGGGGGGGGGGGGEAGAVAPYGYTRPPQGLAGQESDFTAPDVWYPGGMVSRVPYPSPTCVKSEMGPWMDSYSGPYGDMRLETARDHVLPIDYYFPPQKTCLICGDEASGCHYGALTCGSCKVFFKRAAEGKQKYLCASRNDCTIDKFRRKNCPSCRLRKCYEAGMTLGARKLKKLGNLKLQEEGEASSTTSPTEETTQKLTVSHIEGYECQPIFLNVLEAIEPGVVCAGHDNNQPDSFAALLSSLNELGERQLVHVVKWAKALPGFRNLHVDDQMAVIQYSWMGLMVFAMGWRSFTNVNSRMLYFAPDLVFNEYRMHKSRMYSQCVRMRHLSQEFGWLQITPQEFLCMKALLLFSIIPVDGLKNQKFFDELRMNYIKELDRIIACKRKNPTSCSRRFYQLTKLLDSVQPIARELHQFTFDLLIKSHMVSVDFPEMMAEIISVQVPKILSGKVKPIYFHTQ
As to the kind of experiment: Inhibition of AR transcriptional activity in human LNCaP cells harboring ARR2PB-eGFP assessed as decrease in PSA level. In kind it is cell-based, LN-18.
Conditions: not given
In general, IC50 refers to the concentration that gives 50% inhibition. With `O=c1cc(C(F)(F)F)c2ccc(/N=C/c3ccccc3O)cc2o1`, the IC50 stood at 3.71 µM.

The next data set is filed under the species Homo sapiens. As to the kind of experiment: Antagonist activity at human androgen receptor N756A mutant at 10 uM by dual-Glo luciferase assay. Conditions: filed as antagonist.
Consider `CNC(=O)c1ccc(N2C(=S)N(c3ccc(C#N)c(C(F)(F)F)c3)C(=O)C2(C)C)cc1F` [ENZALUTAMIDE], for which the outcome was Active.
`CC(O)c1cc(C(=O)N[C@@H](C)Cn2ccc(-c3ccc(C#N)c(Cl)c3)n2)n[nH]1` (stereo partly drawn): the result was Active.
Still for that read-out and setting: as for `CNC(=O)c1ccc(N2C(=S)N(c3cnc(C#N)c(C(F)(F)F)c3)C(=O)C23CCC3)cc1F`, the entry is “Active”.

The next data set concerns GES1. As to the kind of experiment: Cytotoxicity against human GES1 cells assessed as reduction in cell viability incubated for 72 hrs by MTT assay. The data set is classed as cell-based. Particulars: ges1, 72 h. (In general: Tetrazolium assays rely on reduction of a dye to a coloured formazan, in cell work by metabolically active cells.)
With `CNC(=O)c1ccc(N2C(=S)N(c3ccc(C#N)c(C(F)(F)F)c3)C(=O)C2(C)C)cc1F` [ENZALUTAMIDE], the Activity result was “Non-Toxic”.

A further data set has as its target T1, Androgen receptor.
Conditions: not given
As for `O=c1cc(C(F)(F)F)c2ccc(/N=C/c3ccccc3O)cc2o1`, the IC50 stood at 1.66 µM.

Another data set has as its target T1, Androgen receptor. Put plainly: Inhibition of AR transcriptional activity in human LNCaP cells harboring ARR2PB-eGFP incubated for 72 hrs by fluorescence assay. The data set is classed as cell-based.
Conditions: not given
As for `Cn1cc(C(=O)Nc2ccc3c(C(F)(F)F)cc(=O)oc3c2)c(Br)n1`, the IC50 is > 50 µM.
As for `O=c1cc(C(F)(F)F)c2ccc(OCc3cccnc3)cc2o1`, the half-inhibitory concentration (IC50) was > 50 µM.
For `O=C(Nc1ccc2c(C(F)(F)F)cc(=O)oc2c1)c1nc2ncccn2n1`, the IC50 is > 50 µM.
Still for that read-out and setting: with `O=c1cc(C(F)(F)F)c2ccc(OCc3cccc(Br)c3)cc2o1` the figure was 2.28 µM; with `Cn1cc(C(=O)Nc2ccc3c(C(F)(F)F)cc(=O)oc3c2)c(I)n1`, > 50 µM.
On the same count and under the same terms, with `CCOC(=O)C(CC)Oc1ccc2c(C(F)(F)F)cc(=O)oc2c1` (stereo not drawn) the figure was > 50 µM.
Turning to `Cn1cc(C(=O)Nc2ccc3c(C(F)(F)F)cc(=O)oc3c2)cn1`, the IC50 is > 50 µM.
Still for that read-out and setting: with `CCn1cc(C(=O)Nc2ccc3c(C(F)(F)F)cc(=O)oc3c2)c(C)n1` the figure was > 50 µM; with `O=c1cc(C(F)(F)F)c2ccc(OCc3cc4c(cc3Cl)OCO4)cc2o1`, 1.47 µM.
On the same count and under the same terms, with `O=c1cc(C(F)(F)F)c2ccc(OCc3ccc([N+](=O)[O-])cc3)cc2o1` the figure was > 50 µM; with `O=C(c1ccccc1)c1ccc(/N=C/c2ccccc2O)cc1`, > 50 µM.
As for `N#Cc1cccc(/N=C/c2ccccc2O)c1`, the IC50 was > 50 µM.
As to `O=c1cc(C(F)(F)F)c2ccc(OCc3ccccn3)cc2o1`, the IC50 was > 50 µM.
Same read-out and setting: as for `O=C(Nc1ccc2c(C(F)(F)F)cc(=O)oc2c1)c1ccccc1`, the figure is > 50 µM; as for `O=c1cc(C(F)(F)F)c2ccc(/N=C/c3ccccc3O)cc2o1`, 5.57 µM; as for `COC(=O)c1ccc(COc2ccc3c(C(F)(F)F)cc(=O)oc3c2)cc1`, 30.7 µM.
Still for that read-out and setting: with `Cc1cccc(C(=O)Nc2ccc3c(C(F)(F)F)cc(=O)oc3c2)c1` the figure was > 50 µM; with `O=c1cc(C(F)(F)F)c2ccc(OCc3ccccc3Cl)cc2o1`, 0.41 µM; with `O=c1cc(C(F)(F)F)c2ccc(OCc3ccccc3)cc2o1`, 1.18 µM.
`COc1ccc(COc2ccc3c(C(F)(F)F)cc(=O)oc3c2)cc1` came in with an IC50 of 1.62 µM.
The same measure, in the same setting: with `O=C(Nc1ccc2c(C(F)(F)F)cc(=O)oc2c1)c1ccccc1Cl` the figure was > 50 µM; with `Oc1ccccc1/C=N/c1ccc2oc(-c3ccccc3)nc2c1`, > 50 µM.
Same read-out and setting: as for `O=c1cc(C(F)(F)F)c2ccc(OCc3ccc4ccccc4c3)cc2o1`, the figure is > 50 µM; as for `Cc1cccc(COc2ccc3c(C(F)(F)F)cc(=O)oc3c2)c1`, 1.4 µM; as for `O=c1cc(C(F)(F)F)c2ccc(OCc3ccc(C(F)(F)F)cc3)cc2o1`, 0.89 µM.
Regarding `COc1ccc([N+](=O)[O-])cc1COc1ccc2c(C(F)(F)F)cc(=O)oc2c1`, the IC50 was > 50 µM.
Still for that read-out and setting: as for `O=c1cc(C(F)(F)F)c2ccc(OCc3ccc4c(c3)OCO4)cc2o1`, the figure is 9.37 µM.
On to `O=c1cc(C(F)(F)F)c2ccc(OCc3ccc(Cl)cc3)cc2o1`, for which the IC50 was 1.04 µM.
Still for that read-out and setting: with `O=c1cc(C(F)(F)F)c2ccc(OCc3ccc(OC(F)(F)F)cc3)cc2o1` the figure was 25.1 µM; with `O=c1cc(C(F)(F)F)c2ccc(OCc3ccccc3F)cc2o1`, 0.92 µM.
Same read-out and setting: as for `Cc1ccc(COc2ccc3c(C(F)(F)F)cc(=O)oc3c2)cc1`, the figure is 0.61 µM.
In the case of `Oc1ccccc1/C=N/c1ccc(Cl)c(Cl)c1`, the IC50 was > 50 µM.
With `O=c1cc(C(F)(F)F)c2ccc(OCc3ccccc3Br)cc2o1`, the IC50 stood at 0.94 µM.
Same read-out and setting: as for `O=c1cc(C(F)(F)F)c2ccc(OCc3ccc(-c4ccccc4)cc3)cc2o1`, the figure is > 50 µM; as for `CC(C)c1ccc(COc2ccc3c(C(F)(F)F)cc(=O)oc3c2)cc1`, 9.26 µM.
Still for that read-out and setting: as for `O=c1cc(C(F)(F)F)c2ccc(OCc3ccncc3)cc2o1`, the figure is 1.9 µM.
The same measure, in the same setting: with `CC(=O)c1ccc(COc2ccc3c(C(F)(F)F)cc(=O)oc3c2)cc1` the figure was > 50 µM.
Consider `Cc1ccc(/N=C/c2ccccc2O)cc1Br`, for which the IC50 is > 50 µM.
In turn, `O=c1cc(C(F)(F)F)c2ccc(OCc3c(F)cccc3Cl)cc2o1` displayed a 50% inhibitory concentration (IC50) of 0.78 µM.
The same measure, in the same setting: as for `Cc1ccc(OC(=O)Nc2ccc3c(C(F)(F)F)cc(=O)oc3c2)c(C)c1`, the figure is > 50 µM; as for `COC(=O)C(CC(C)C)Oc1ccc2c(C(F)(F)F)cc(=O)oc2c1` (stereo not drawn), > 50 µM; as for `O=c1cc(C(F)(F)F)c2ccc(OCc3ccc(F)cc3)cc2o1`, 0.47 µM.
Same read-out and setting: with `NC(=O)c1ccc(COc2ccc3c(C(F)(F)F)cc(=O)oc3c2)cc1` the figure was > 50 µM; with `O=C(Nc1ccc2c(C(F)(F)F)cc(=O)oc2c1)c1cccc(Cl)c1`, > 50 µM.
Still for that read-out and setting: with `C[C@H](Oc1cc(Cl)ccc1Cl)C(=O)Nc1ccc2c(C(F)(F)F)cc(=O)oc2c1` the figure was > 50 µM; with `O=C(Nc1ccc2c(C(F)(F)F)cc(=O)oc2c1)c1ccccc1F`, > 50 µM.
`O=C(Oc1ccc2c(C(F)(F)F)cc(=O)oc2c1)C1CCCCC1`: the IC50 was > 50 µM.

The target of a further data set is T2, Androgen receptor (Homo sapiens) (UniProt P10275).
T2 sequence (whole entry): T1 sequence (P10275 whole entry)
As to the kind of experiment: Binding affinity to GST-tagged AR ligand binding domain (unknown origin) at 10 uM measured after 4 hrs by fluorescence polarization assay.
Conditions: not given
For `Cc1ccc(NCc2ccccc2OCc2cccc3ccccc23)cc1`, the outcome was inactive.
Consider `CC(C(=O)Nc1ccccc1Cl)c1ccc(-c2ccccc2)c(F)c1` (stereo not drawn), for which the result was inactive.

The data set is the same for the next values; noted with them: filed as antagonist.
Turning to `O=C1C2CC=CCC2C(=O)N1c1cccc(C(F)(F)F)c1` (stereo not drawn), the result was Active.
The same measure, in the same setting: with `O=c1cc(C(F)(F)F)c2ccc(/N=C/c3ccccc3O)cc2o1` the entry was “Active”.

Another data set has as its system NIH3T3. As to the kind of experiment: Cytotoxicity against mouse NIH3T3 cells assessed as reduction in cell viability incubated for 72 hrs by MTT assay. The data set is classed as cell-based. Particulars: nih3t3, 72 h.
Consider `CNC(=O)c1ccc(N2C(=S)N(c3ccc(C#N)c(C(F)(F)F)c3)C(=O)C2(C)C)cc1F` [ENZALUTAMIDE], for which the Activity entry is listed as “Non-Toxic”.

The next data set deals with T2, Androgen receptor (Homo sapiens). Put plainly: Inhibition of AR transcriptional activity in human LNCaP cells harboring ARR2PB-eGFP at 10 uM incubated for 72 hrs by fluorescence assay. The data set is classed as cell-based. Conditions: filed as antagonist.
What is called inhibition is the share of the control response that was lost under treatment. Molecule `O=C1C2CC=CCC2C(=O)N1c1cccc(C(F)(F)F)c1` (stereo not drawn) displayed an inhibition of 40%.
Still for that read-out and setting: as for `Cc1ccc(NCc2ccccc2OCc2cccc3ccccc23)cc1`, the figure is 40%.
`O=c1cc(C(F)(F)F)c2ccc(/N=C/c3ccccc3O)cc2o1` showed an inhibition of 40%.
Still for that read-out and setting: as for `CC(C(=O)Nc1ccccc1Cl)c1ccc(-c2ccccc2)c(F)c1` (stereo not drawn), the figure is 40%.

In another data set the test system is LNCaP. Put plainly: Inhibition of colony formation in human LANCaP cells after 2 weeks by crystal violet staining based assay. In kind it is functional, cell-based. Particulars: dose 2-20 µM.
For `CNC(=O)c1ccc(N2C(=S)N(c3ccc(C#N)c(C(F)(F)F)c3)C(=O)C2(C)C)cc1F` [ENZALUTAMIDE], the inhibition result was “Dose-dependent effect”.
